Source: US20250270180A1, “MEK INHIBITORS AND THERAPEUTIC USES THEREOF” (Immuneering Corporation, priority 2020, published 2025)
Where two headings read alike, the source gives them in different places.

How the values were obtained:
CYP450 1A2 = target: T1, CYP450 1A2 (Homo sapiens, UniProt P05177); assay: CYP450 panel, 1A2; type: in vitro ADME; conditions: 10 μM; substrate phenacetin
T1 sequence (P05177 1-516): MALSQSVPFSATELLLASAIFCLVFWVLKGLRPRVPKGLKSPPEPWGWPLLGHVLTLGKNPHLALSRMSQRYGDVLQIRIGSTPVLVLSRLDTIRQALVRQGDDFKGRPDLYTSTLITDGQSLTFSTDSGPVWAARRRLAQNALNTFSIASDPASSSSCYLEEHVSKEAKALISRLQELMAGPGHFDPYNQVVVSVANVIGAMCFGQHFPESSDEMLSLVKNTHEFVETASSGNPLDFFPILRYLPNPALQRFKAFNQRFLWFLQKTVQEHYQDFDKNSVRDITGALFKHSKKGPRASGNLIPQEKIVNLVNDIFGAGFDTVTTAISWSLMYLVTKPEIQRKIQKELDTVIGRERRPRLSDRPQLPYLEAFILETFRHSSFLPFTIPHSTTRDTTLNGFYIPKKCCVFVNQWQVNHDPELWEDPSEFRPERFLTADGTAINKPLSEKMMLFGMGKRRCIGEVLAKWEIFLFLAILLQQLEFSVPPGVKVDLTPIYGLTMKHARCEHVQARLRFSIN

PAMPA (pH 7.4) = assay: PAMPA (pH 7.4)
Experimental: Each stock solution was diluted to 50 uM in pH 7.4 Prisma HT buffer (pION) and 200 ul was added to each well of the donor plate in triplicate. The polyvinylidene fluoride (PVDF, 0.45 μm) filter membrane on the acceptor plate was coated with 5 ul gastrointestinal tract lipid formulation (GIT-0, pION) and to each well of the acceptor plate, 200 μl of acceptor sink buffer (pION) was added. The acceptor filter plate was then carefully placed on top of the donor plate to form a sandwich. The sandwich was incubated at 25° C. for 4 h without stirring. UV-vis spectra of the solutions in the blank, reference, acceptor and donor plates were measured using a microplate reader (Tecan Infinite 200PRO M Nano Plus). Permeability values were calculated using the PAMPA explorer software v. 3.8.0.2 (pION).

[1] = Pharmacokinetics, single dose, 2-hour tissue levels in Colon26 tumor bearing mice; type: in vivo; conditions: female, athymic BALB/c nude or BALB/c, mouse, po, single dose 100 mg/kg p.o., 2-hour post dose
Experimental: Female mice (either athymic BALC/c nude, or BALB/c mice) were inoculated with a single subcutaneous injection of 0.2 ml of mouse Colon-26 cell suspension (1×10^5 cells per animal) in the inguinal region. Colon26 (C26) tumor bearing mice received a single dose (3 mice/treatment) of vehicle (10% DMSO/90% [20% SBE-β-CD in saline], pH 5) containing compounds at 100 mg/kg by gavage (p.o.) and 2-hour post dose humanely euthanized.
Blood was obtained through cardiac puncture into K+EDTA tubes, mixed by inversion and centrifuged to obtain the plasma. Tissues were excised, cleaned of surrounding tissues. All samples immediately snap frozen in liquid N2 prior to LC-MS/MS analysis (using Waters HSS T3 2.1×50 mm (1.8 um) LC column, and an API-6500 Electrospray MS unit).

[2] = test system: A549 CRAF BP (MEK phosphorylation); assay: A549-CRAF BP 100 nM, 2 h (pMEK); type: cell-based; conditions: Homo sapiens, A549, 2 h, phospho:total ratio normalized to DMSO control
In short: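 Cells treated in duplicate for 2 h with compound, lysed and protein-normalised (1 mg/mL pERK, 1.5 mg/mL pMEK). Quantitative capillary Western; phospho/total protein ratio normalised to DMSO.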

CYP450 2B6 = target: T2, CYP450 2B6 (Homo sapiens, UniProt P20813); assay: CYP450 panel, 2B6; conditions: 10 μM; substrate bupropion
T2 sequence (P20813 1-491): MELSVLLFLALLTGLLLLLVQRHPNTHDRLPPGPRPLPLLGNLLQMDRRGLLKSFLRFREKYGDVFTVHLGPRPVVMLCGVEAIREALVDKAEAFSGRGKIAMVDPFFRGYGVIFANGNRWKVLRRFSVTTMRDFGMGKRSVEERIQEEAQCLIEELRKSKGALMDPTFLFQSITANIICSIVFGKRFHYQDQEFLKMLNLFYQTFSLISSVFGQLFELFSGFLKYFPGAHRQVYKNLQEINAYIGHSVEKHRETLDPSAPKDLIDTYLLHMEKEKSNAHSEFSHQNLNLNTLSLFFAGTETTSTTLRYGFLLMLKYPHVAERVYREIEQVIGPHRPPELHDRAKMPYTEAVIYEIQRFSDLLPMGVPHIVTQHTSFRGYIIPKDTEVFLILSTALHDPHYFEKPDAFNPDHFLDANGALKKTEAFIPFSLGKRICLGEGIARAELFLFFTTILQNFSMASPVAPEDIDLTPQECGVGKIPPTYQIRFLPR

CYP450 2C8 = target: T3, CYP450 2C8 (Homo sapiens, UniProt P10632); assay: CYP450 panel, 2C8; conditions: 10 μM; substrate amodiaquine
T3 sequence (P10632 1-490): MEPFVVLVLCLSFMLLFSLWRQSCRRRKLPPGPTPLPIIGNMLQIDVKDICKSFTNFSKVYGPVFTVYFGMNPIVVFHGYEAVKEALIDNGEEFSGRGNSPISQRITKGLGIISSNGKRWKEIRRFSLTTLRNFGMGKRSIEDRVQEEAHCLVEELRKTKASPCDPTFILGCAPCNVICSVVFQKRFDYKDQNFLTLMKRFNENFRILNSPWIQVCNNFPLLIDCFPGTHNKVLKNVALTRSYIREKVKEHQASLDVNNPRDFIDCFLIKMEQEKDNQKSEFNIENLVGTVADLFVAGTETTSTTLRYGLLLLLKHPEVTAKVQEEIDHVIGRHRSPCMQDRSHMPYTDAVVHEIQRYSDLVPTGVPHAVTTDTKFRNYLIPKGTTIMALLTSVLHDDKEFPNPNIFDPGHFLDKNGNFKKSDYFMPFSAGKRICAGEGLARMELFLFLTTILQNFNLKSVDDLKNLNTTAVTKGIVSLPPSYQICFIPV

CYP450 2C9 = CYP450 2C9 (Homo sapiens, UniProt P11712); assay: CYP450 panel, 2C9; conditions: 10 μM; substrate Diclofenac
Chain of CYP450 2C9 (P11712 whole entry): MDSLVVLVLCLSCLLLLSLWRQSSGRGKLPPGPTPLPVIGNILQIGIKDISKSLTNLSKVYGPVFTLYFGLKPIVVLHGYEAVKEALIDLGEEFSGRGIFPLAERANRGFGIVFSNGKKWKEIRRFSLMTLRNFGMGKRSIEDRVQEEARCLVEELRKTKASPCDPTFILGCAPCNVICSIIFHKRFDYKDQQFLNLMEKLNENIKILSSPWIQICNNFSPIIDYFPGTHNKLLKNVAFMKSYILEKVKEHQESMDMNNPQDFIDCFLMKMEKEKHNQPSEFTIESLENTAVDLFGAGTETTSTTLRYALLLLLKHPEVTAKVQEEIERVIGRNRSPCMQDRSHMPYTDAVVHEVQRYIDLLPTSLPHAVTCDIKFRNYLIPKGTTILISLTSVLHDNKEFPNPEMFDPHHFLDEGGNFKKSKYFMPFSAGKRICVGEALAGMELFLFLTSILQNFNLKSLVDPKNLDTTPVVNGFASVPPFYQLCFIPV

Row | SMILES | 1A2* (CYP450 1A2) | Papp at 4 h, 50 uM (PAMPA (pH 7.4); PAMPA) | concentration at 2 h ([1]; liver, read-out: Liver) | concentration at 2 h ([1]; muscle, read-out: Muscle) | concentration at 2 h ([1]; plasma, read-out: Plasma) | concentration at 2 h ([1]; tumor, read-out: Tumor) | activity at 0.1 µM [2] | 2B6* (CYP450 2B6) | 2C8* (CYP450 2C8) | 2C9* (CYP450 2C9) | PAMPA (pH = 7.4; Papp 10^−6 cm/s) (PAMPA (pH 7.4))
1 | CNS(=O)(=O)Nc1cccc(Cc2c(CN(C)C)c3ccc(OC(=O)N(C)C)cc3oc2=O)c1F [Compound 9] | 4.8 | 37 ×10⁻⁶ cm/s | 1260 ng/g | 363 ng/g | 407 ng/mL | 1350 ng/g | 44.9% | 14.8 | 4.0 | 6.8 | 
2 | Cn1cnc2c(F)c(Nc3ccc(Br)cc3Cl)c(C(=O)NOCCO)cc21 [Reference 1, Selumetinib, reference compound] | 8.3 |  |  |  |  |  |  | 30.2 | 18.9 | 14.1 | 29 10^−6 cm/s
3 | CNS(=O)(=O)Nc1nccc(Cc2c(C)c3ccc(Oc4ncccn4)cc3oc2=O)c1F [Reference 2, reference compound] | 0.8 |  | 1990 ng/g | 550 ng/g | 5670 ng/mL | 819 ng/g |  |  |  |  | 29 10^−6 cm/s
